Test results reported in ChEMBL document CHEMBL3046487, “Preparation and root growth-modulatory activity of N-substituted 2-acetylamino-2-ethoxycarbonyl-3-(2-furyl)propanamides” (2001).

Key:
Type in all cases: functional
[1] = test system: Brassica rapa subsp. oleifera; assay: Root growth inhibition of Brassica rapa subsp. oleifera seedling at 1 x 10^-3 M after 7 days by agar dilution method relative to control; details: 168 h, read-out: GI
[2] = test system: Allium tuberosum; assay: Root growth inhibition of Allium tuberosum seedling at 1 x 10^-3 M after 10 days by agar dilution method relative to control; details: 240 h, read-out: GI
[3] = test system: Allium tuberosum; assay: Root growth inhibition of Allium tuberosum seedling at 5 x 10^-4 M after 10 days by agar dilution method relative to control; details: 240 h, read-out: GI
[4] = test system: Brassica rapa subsp. oleifera; assay: Root growth inhibition of Brassica rapa subsp. oleifera seedling at 1 x 10^-4 M after 7 days by agar dilution method relative to control; details: 168 h, read-out: GI
[5] = test system: Allium tuberosum; assay: Root growth inhibition of Allium tuberosum seedling at 1 x 10^-4 M after 10 days by agar dilution method relative to control; details: 240 h, read-out: GI
[6] = test system: Allium tuberosum; assay: Root growth inhibition of Allium tuberosum seedling at 5 x 10^-5 M after 10 days by agar dilution method relative to control; details: 240 h, read-out: GI
[7] = test system: Brassica rapa subsp. oleifera; assay: Root growth inhibition of Brassica rapa subsp. oleifera seedling at 5 x 10^-4 M after 7 days by agar dilution method relative to control; details: 168 h, read-out: GI
[8] = test system: Brassica rapa subsp. oleifera; assay: Root growth inhibition of Brassica rapa subsp. oleifera seedling at 5 x 10^-5 M after 7 days by agar dilution method relative to control; details: 168 h, read-out: GI
[9] = test system: Allium tuberosum; assay: Root growth promotion of Allium tuberosum seedling at 1 x 10^-3 M after 10 days by agar dilution method relative to control; details: 240 h, read-out: GI

Row | Structure (SMILES) | inhibition of growth at 1000 µM [1] | inhibition of growth at 1000 µM [2] | inhibition of growth at 500 µM [3] | inhibition of growth at 100 µM [4] | inhibition of growth at 100 µM [5] | inhibition of growth at 50 µM [6] | inhibition of growth at 500 µM [7] | inhibition of growth at 50 µM [8] | inhibition of growth at 1000 µM [9]
1 | CCOC(=O)C(Cc1ccco1)(NC(C)=O)C(=O)Nc1ccccc1 (racemic) | 3% | 7% | – | – | – | – | – | – | –
2 | CCOC(=O)C(Cc1ccco1)(NC(C)=O)C(=O)Nc1ncc(Br)s1 (racemic) | 100% | 56% | 53% | 80% | 50% | 30% | 98% | 21% | –
3 | CCOC(=O)C(Cc1ccco1)(NC(C)=O)C(=O)Nc1nc2c(Cl)cccc2s1 (racemic) | 100% | 70% | 50% | 50% | 10% | 10% | 91% | 41% | –
4 | CCOC(=O)C(Cc1ccco1)(NC(C)=O)C(=O)Nc1nccs1 (racemic) | 53% | 29% | – | – | – | – | – | – | –
5 | CCOC(=O)C(Cc1ccco1)(NC(C)=O)C(=O)Nc1ncc(C)s1 (racemic) | 61% | 42% | – | – | – | – | – | – | –
6 | CCOC(=O)C(Cc1ccco1)(NC(C)=O)C(=O)Nc1ccc(Cl)cc1 (racemic) | 49% | – | – | – | – | – | – | – | 14%
7 | O=C(O)COc1ccc(Cl)cc1Cl [2,4-DICHLOROPHENOXYACETIC ACID] | 100% | 100% | 100% | 98% | 99% | 97% | 99% | 98% | –
8 | CCCCNC(=O)C(Cc1ccco1)(NC(C)=O)C(=O)OCC (racemic) | 9% | 4% | – | – | – | – | – | – | –
9 | CCOC(=O)C(Cc1ccco1)(NC(C)=O)C(=O)NCc1ccco1 (racemic) | 13% | – | – | – | – | – | – | – | 36%
10 | CCOC(=O)C(Cc1ccco1)(NC(C)=O)C(=O)OCC | 26% | 4% | – | – | – | – | – | – | –
11 | CCOC(=O)C(Cc1ccco1)(NC(C)=O)C(=O)Nc1ncc([N+](=O)[O-])s1 (racemic) | 94% | 54% | – | – | – | – | – | – | –
12 | CCOC(=O)C(Cc1ccco1)(NC(C)=O)C(=O)O (configuration not stated) | 66% | 47% | – | – | – | – | – | – | –
